Measured values taken from patent US20230027295A1, “FXIA INHIBITORS AND PREPARATION METHOD THEREFOR AND PHARMACEUTICAL USE THEREOF” (Shenzhen Salubris Pharmaceuticals Co., Ltd., priority 2019, published 2023).

What was measured:
[1] = biological target: Human Factor XIa (Homo sapiens, UniProt P03951); assay: Inhibition of human coagulation factor XIa by absorptiometry (substrate S-2366); assay type: biochemical; details: 37° C., 20 min incubation, absorbance 405 nm; read-out: hFXIa IC50
Procedure: Example 50: Detection of the Biological Activity of the Compounds of the Present Invention on the Inhibition of Human Coagulation Factor XIa by Absorptiometry
Buffer: 145 mM NaCl, 5 mM KCl, 1 mg/mL PEG 8000, 30 mM HEPES, pH 7.4
10 mM test compound dissolved in 100% DMSO was diluted with 100% DMSO to […]; 98 μL of FXIa enzyme solution (77.7 ng/mL) was added to each well of a 96-well plate, and 98 μL of buffer was added to the blank wells. 2 μL of compounds of different concentrations were added, and the blank and control wells were added with DMSO instead. They were mixed with a shaker, and incubated at 37° C. for 20 minutes.
Finally, 100 μL of 800 μM substrate was added to each well, and its absorbance was measured at 405 nm.

[2] = test system: human plasma; assay: Anticoagulant effect on human plasma in vitro (APTT determination); assay type: biochemical; details: for aPTT EC1.5×: concentration giving APTT of 1.5× blank control; for aPTT EC2×: concentration giving APTT of 2× blank control
Procedure: Example 51: Determination of the Anticoagulant Effect of the Compounds of the Present Invention on Human Plasma In Vitro
Plasma: Human blood was collected in a vacuum blood collection tube containing 3.2% sodium citrate (volume ratio 1:9), centrifuged at 3000 rpm for 10 min at room temperature, and the plasma was collected, divided into EP tubes, and stored at −80° C.
Reagents: APTT assay kit (Activated partial thromboplastin time assay kit, mindray), calcium chloride solution.
Instrument: coagulation meter (mindray, C2000-A)
The frozen human plasma in aliquots was thawed at room temperature and mixed well. 10 mM test compound dissolved in 100% DMSO was diluted with 100% DMSO to 1500, 750, 375, 187.5, 93.75, 46.88, 23.44, 11.72 μM. 98 μL of human plasma was added to a 1.5 mL EP tube, then 2 μL of compounds of different concentrations were added, and 2 μL of 100% DMSO was added for the blank group. They were incubated under a water bath at 37° C. for 10 min, and the samples were placed in the corresponding position of the coagulation analyzer to conduct APTT determination of the compounds.
Curve fitting was performed with GraphPad Prism software, and EC1.5× and EC2× values were calculated respectively, i.e., the concentrations of the compounds corresponding to the APTT of 1.5× and 2× blank control group.

[3] = Rat pharmacokinetics; assay type: in vivo, SD rats; design: AUC: concentration or dose not given beside the values; details: for AUC / Cmax / Tmax / clearance / half-life / Vd: male, SD, plasma; for Vd: read-out: Vss
Description: Example 53: Investigation of the Pharmacokinetic Characteristics of the Compounds of the Present Invention
SD rats: male, 180-250 g, purchased from Guangdong Medical Laboratory Animal Center. Cynomolgus monkey: male, 4-6 kg, purchased from Guangzhou Chunsheng Biological Research Institute Co., Ltd. Beagle dog: male, 8-12 kg, developed in Kanglong Chemical (Ningbo) New Drug Technology Co., Ltd.
Reagents: DMSO (dimethyl sulfoxide), PEG-400 (polyethylene glycol 400), normal brine, heparin, acetonitrile, formic acid, and propranolol (internal standard) are commercially available.
Instrumentation: Thermo Fisher Scientific LC-MS (U300 UPLC, TSQ […] ULTRA triple quadrupole mass spectrometer).
The compound was weighed and dissolved in DMSO-PEG-400-physiological brine (5:60:35, v/v/v) system. After the rats/monkeys were administered intravenously or by gavage, 200 μL of venous blood was collected at 5 min (not collected when administered by gavage), 15 min, 30 min, 1 h, 2 h, 4 h, 6 h, 8 h, and 24 h in heparinized EP tubes, centrifuged at 12000 rpm for 2 min, and the plasma was frozen at −80° C. for testing. A certain amount of the test substance was precisely weighed and dissolved in DMSO to 1 mg/mL, which was used as a stock solution. An appropriate amount of compound stock solution was accurately pipetted and diluted with acetonitrile to prepare a standard series of solutions. 20 μL of each of the above standard series solutions were accurately pipetted, added with 180 μL of blank plasma, vortexed and mixed to prepare plasma samples equivalent to plasma concentrations of 1, 3, 10, 30, 100, 300, 1000, 3000 and 5000 ng/mL. Two-sample analysis was performed for each concentration to establish a standard curve. 20 μL of plasma was taken out, added with 200 μL of internal standard propranolol (5 ng/mL) in acetonitrile, vortexed and mixed. It was centrifuged at 4000 rpm for 5 min, and the supernatant was collected for LC-MS analysis. LC-MS detection conditions were as follows:
Chromatographic column: Thermo Scientific […] GOLD C-18 UPLC column, 100*2.1 mm, 1.9 μm.
Mobile phase: water (0.1% formic acid)-acetonitrile for gradient elution according to the table below.
After blood drug concentrations being detected by LC-MS, WinNonlin 6.1 software was used to calculate pharmacokinetic parameters by non-compartmental model method.

Human Factor XIa, sequence (P03951 388-625 limits assumed): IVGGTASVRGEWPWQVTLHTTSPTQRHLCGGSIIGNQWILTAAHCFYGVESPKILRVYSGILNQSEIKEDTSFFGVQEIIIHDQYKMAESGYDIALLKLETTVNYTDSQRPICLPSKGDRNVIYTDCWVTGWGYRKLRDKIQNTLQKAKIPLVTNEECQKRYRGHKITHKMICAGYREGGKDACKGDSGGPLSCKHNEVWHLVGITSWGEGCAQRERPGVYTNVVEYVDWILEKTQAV
Human Factor XIa, sequence (P03951 19-387 partner limits assumed): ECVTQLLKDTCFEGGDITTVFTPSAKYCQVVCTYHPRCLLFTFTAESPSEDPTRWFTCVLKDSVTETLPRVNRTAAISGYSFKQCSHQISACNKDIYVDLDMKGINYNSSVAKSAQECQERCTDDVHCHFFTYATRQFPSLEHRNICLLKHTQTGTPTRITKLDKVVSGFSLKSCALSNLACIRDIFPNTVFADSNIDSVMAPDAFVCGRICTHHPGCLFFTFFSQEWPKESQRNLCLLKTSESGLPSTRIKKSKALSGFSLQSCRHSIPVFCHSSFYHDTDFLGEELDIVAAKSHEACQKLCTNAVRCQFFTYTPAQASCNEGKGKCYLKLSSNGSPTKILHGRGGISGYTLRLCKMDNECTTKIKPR

| Structure (SMILES) | IC50 [1] [nM] | aPTT EC1.5× [2] [µM] | aPTT EC2× [2] [µM] | further results |
| --- | --- | --- | --- | --- |
| O=C(O)c1ccc(NC(=O)[C@H](Cc2ccccc2)n2cnc(-c3cc(Cl)ccc3-n3cc(Cl)nn3)cc2=O)cc1 [Compound A, (S)-4-(2-(4-(5-chloro-2-(4-chloro-1H-1,2,3-triazol-1-yl)phenyl)-6-oxopyrimidin-1(6H)-yl)-3-phenylpropanamido)benzoic acid, reference compound] |  |  |  | F ([3]; ig): 8.2%; AUC ([3]; iv): 1410 ng·h/mL; Cmax ([3]; iv): 4600 ng/mL; Tmax ([3]; iv): 4.98 min; clearance ([3]; iv): 11.9 mL/min/kg; half-life ([3]; iv): 35.3 min; Vd ([3]; iv): 0.124 L/kg; AUC ([3]; po, ig): 576 ng·h/mL; Cmax ([3]; po, ig): 180 ng/mL; Tmax ([3]; po, ig): 30 min; half-life ([3]; po, ig): 75.6 min |
| O=C(O)c1ccc(NC(=O)[C@H](Cc2ccccc2)n2ncc(-c3c(F)ccc(Cl)c3F)cc2=O)cc1 [Example 42, (S)-4-(2-(4-(3-chloro-2,6-difluorophenyl)-6-oxopyridazin-1(6H)-yl)-3-phenylpropanamido)benzoic acid] | 1400 |  |  |  |
| COc1cc(NC(=O)[C@H](Cc2ccccc2)n2nc(OC)c(-c3cc(Cl)ccc3C(C)=O)cc2=O)ccc1C(=O)O [Example 28, (S)-4-(2-(4-(2-acetyl-5-chlorophenyl)-3-methoxy-6-oxopyridazin-1(6H)-yl)-3-phenylpropan amido)-2-methoxybenzoic acid] | 218 |  |  |  |
| COc1nn([C@@H](Cc2ccccc2)C(=O)Nc2ccc(C(=O)O)c(Cl)c2)c(=O)cc1-c1cc(Cl)ccc1C(C)=O [Example 27, (S)-4-(2-(4-(2-acetyl-5-chlorophenyl)-3-methoxy-6-oxopyridazin-1(6H)-yl)-3-phenylpropanamido)-2-chlorobenzoic acid] | 79.5 |  |  |  |
| CC(=O)c1ccc(Cl)cc1-c1cc(=O)n([C@@H](Cc2ccccc2)C(=O)Nc2ccc(C(=O)O)cc2)nc1O [Example 34, (S)-4-(2-(4-(2-acetyl-5-chlorophenyl)-3-hydroxy-6-oxopyridazin-1(6H)-yl)-3-phenylpropanamido)benzoic acid] | 140 |  |  |  |
| CC(=O)c1ccc(Cl)cc1-c1cnn([C@@H](Cc2ccccc2)C(=O)Nc2ccc(C(=O)O)cc2)c(=O)c1 [Example 1, (S)-4-(2-(4-(2-acetyl-5-chlorophenyl)-6-oxopyridazin-1(6H)-yl)-3-phenylpropanamido)benzoic acid] |  | 9.31 | >30 |  |
| CC(=O)c1ccc(Cl)cc1-c1cc(=O)n([C@@H](Cc2ccccc2)C(=O)Nc2ccc(C(=O)O)cc2)nc1OCCO [Example 6, (S)-4-(2-(4-(2-acetyl-5-chlorophenyl)-3-(2-hydroxyethoxy)-6-oxopyridazine-1(6H)-yl)-3-phenylpropanamido)benzoic acid] |  | 0.771 | 2.892 | F ([3]; ig): 1.7%; AUC ([3]; iv): 604 ng·h/mL; Cmax ([3]; iv): 1370 ng/mL; Tmax ([3]; iv): 4.98 min; clearance ([3]; iv): 27.6 mL/min/kg; half-life ([3]; iv): 9.72 min; Vd ([3]; iv): 0.432 L/kg; Cmax ([3]; po, ig): 30.5 ng/mL; Tmax ([3]; po, ig): 60 min |

Further lines, with some results ahead:

| IC50 [1] [nM] | Structure (SMILES) | aPTT EC1.5× [2] [µM] | aPTT EC2× [2] [µM] | further results |
| --- | --- | --- | --- | --- |
| 16.5 | COc1nn([C@@H](Cc2ccccc2)C(=O)Nc2ccc(C(=O)O)cc2)c(=O)cc1-c1cc(Cl)ccc1C(=O)CO [Example 35, (S)-4-(2-(4-(5-chloro-2-(2-hydroxyacetyl)phenyl)-3-methoxy-6-oxopyridazin-1(6H)-yl)-3-phenylpropanamido)benzoic acid] | 1.271 | 5.987 |  |
| 63.8 | COc1nn([C@@H](Cc2ccccc2)C(=O)Nc2ccc(C(=O)O)c(O)c2)c(=O)cc1-c1cc(Cl)ccc1C(C)=O [Example 29, (S)-4-(2-(4-(2-acetyl-5-chlorophenyl)-3-methoxy-6-oxopyridazin-1(6H)-yl)-3-phenylpropan amido)-2-hydroxybenzoic acid] |  |  |  |
| 51.2 | COc1nn(C(Cc2ccc(Br)cc2)C(=O)Nc2ccc(C(=O)O)cc2)c(=O)cc1-c1cc(Cl)ccc1C(C)=O (stereo not shown) [Example 3, 4-(2-(4-(2-acetyl-5-chlorophenyl)-3-methoxy-6-oxopyridazin-1(6H)-yl)-3-(4-bromophenyl)propanamido)benzoic acid] |  |  |  |
| 8.89 | CCOCC1CCN(c2ccc(CC(C(=O)Nc3ccc(C(=O)O)cc3)n3nc(OC)c(-c4cc(Cl)ccc4C(C)=O)cc3=O)cc2)C(=O)C1 (stereo not shown) [Example 5] | 1.18 | 4.414 |  |
| 22.5 | CC(=O)c1ccc(Cl)cc1-c1cc(=O)n([C@@H](Cc2ccccc2)C(=O)Nc2ccc(C(=O)O)cc2)nc1OCC(F)(F)F [Example 23, (S)-4-(2-(4-(2-acetyl-5-chlorophenyl)-6-oxo-3-(2,2,2-trifluoroethoxy)pyridazine-1(6H)-yl)-3-phenylpropanamido)benzoic acid] | 4.236 | >15 |  |
| 59.3 | COc1nn([C@@H](Cc2ccccc2)C(=O)Nc2ccc(C(=O)O)c(F)c2)c(=O)cc1-c1cc(Cl)ccc1C(C)=O [Example 14, (S)-4-(2-(4-(2-acetyl-5-chlorophenyl)-3-methoxy-6-oxopyridazin-1(6H)-yl)-3-phenylpropanamido)-2-fluorobenzoic acid] |  |  |  |
| 11.6 | COc1nn([C@@H](Cc2ccccc2)C(=O)Nc2ccc(C(=O)O)cc2)c(=O)cc1-c1cc(Cl)ccc1C(=O)C(F)F [Example 36, (S)-4-(2-(4-(5-chloro-2-(2,2-difluoroacetyl)phenyl)-3-methoxy-6-oxopyridazine-1(6H)-yl)-3-phenylpropanamido)benzoic acid] | 1.348 | 6.562 |  |
| 13.9 | COc1nn(C(Cc2ccc(NC(=O)C3CCCC3)cc2)C(=O)Nc2ccc(C(=O)O)cc2)c(=O)cc1-c1cc(Cl)ccc1C(C)=O (stereo not shown) [Example 40, 4-(2-(4-(2-acetyl-5-chlorophenyl)-3-methoxy-6-oxopyridazin-1(6H)-yl)-3-(4-(cyclopentaneformamido)phenyl)propanamido)benzoic acid] | 2.636 | 14.94 |  |
| 24.2 | COc1nn(C(Cc2ccc(C)cc2)C(=O)Nc2ccc(C(=O)O)cc2)c(=O)cc1-c1cc(Cl)ccc1C(C)=O (stereo not shown) [Example 7, 4-(2-(4-(2-acetyl-5-chlorophenyl)-3-methoxy-6-oxopyridazine-1(6H)-yl)-3-(p-tolyl)propanamido)benzoic acid] | 2.073 | 12.58 |  |
| 16.2 | CC(=O)c1ccc(Cl)cc1-c1cc(=O)n([C@@H](Cc2ccccc2)C(=O)Nc2ccc(C(=O)O)cc2)nc1OC(C)C [Example 22, (S)-4-(2-(4-(2-acetyl-5-chlorophenyl)-3-isopropoxy-6-oxopyridazin-1(6H)-yl)-3-phenylpropanamido)benzoic acid] | 1.346 | 9.382 |  |
| 45.6 | COc1nn(C(Cc2ccc(F)cc2)C(=O)Nc2ccc(C(=O)O)cc2)c(=O)cc1-c1cc(Cl)ccc1C(C)=O (stereo not shown) [Example 2] | 3.455 | >15 |  |
